What was measured:
SARS-CoV-2 = assay: Example 1B: immunofluorescence (anti-dsRNA) quantification of SARS-CoV-2-infected Vero E6 cells; format: cell-based; settings: at 10 μM, MOI 0.4, 24 h (FIG. 3)
Procedure: FIG. 3 represents the experiment scheme of a SARS-CoV-2 infection of Vero E6 cells at an MOI of 0.4 and the percentage of infected cells assessed by immunofluorescence (IF) in the presence of increasing concentrations of alisporivir.
The anti-SARS-CoV-2 effectiveness of alisporivir was confirmed by immunofluorescence. Vero E6 cells were infected by SARS-CoV-2 at an MOI of 0.4 for 2 h in the presence of increasing concentrations of alisporivir (1, 5 and 10 μM). After virus removal, infected cells were incubated for 24 h in the presence of alisporivir and immunostained with an anti-double-stranded-RNA (dsRNA) antibody. Infected cells were quantified using ImageJ software.

[1] = test system: SARS-Cov-2 (isolate from patient infected in Paris)
[2] = test system: clinical isolate of SARS-CoV-2
SARS-Cov-1 = settings: cited from earlier work
in vitro [3] = settings: African green monkey
in vitro [4] = settings: African green monkey; remark: listed apart in the source

C/C=C/C[C@@H](C)[C@@H](O)[C@H]1C(=O)N[C@@H](CC)C(=O)N(C)[C@H](C)C(=O)N(CC)[C@@H](C(C)C)C(=O)N[C@@H](C(C)C)C(=O)N(C)[C@@H](CC(C)C)C(=O)N[C@@H](C)C(=O)N[C@H](C)C(=O)N(C)[C@@H](CC(C)C)C(=O)N(C)[C@@H](CC(C)C)C(=O)N(C)[C@@H](C(C)C)C(=O)N1C [alisporivir, [D-MeAla]3-[EtVal]4-CsA]
inhibition of the number of SARS-CoV-2-infected cells (immunofluorescence) (SARS-CoV-2): complete inhibition
EC50 [1]: 540 nM
percentage of inhibition of SARS-CoV-2 RNA production in cell culture supernatant [1]: > 90%
cytotoxicity (VeroE6 cells): not cytotoxic
maximum viral RNA reduction [2]: 2 log 10
therapeutic index ([2]; clinical isolate of, 2 h): more than 43
EC50 ([2]; clinical isolate of, 48 h): 460 nM
EC90 ([2]; clinical isolate of, 48 h): 3100 nM
fold higher EC50 against SARS-Cov-1 than for HCV replicon (SARS-Cov-1): 10.-50 fold
EC50 (SARS-Cov-1; read-out: EC50 in vitro against different SARS-Cov-1): 2000 to 10000 nM
selectivity ratio (in vitro [3]): > 37
CC50 (in vitro [4]): > 20000 nM

Reference: patent US20230149504A1, “A[…] USE IN HUMAN VIRAL INFECTIONS” (DEBIOPHARM INTERNATIONAL SA, priority 2020, published 2023)
